Data set [1] addresses T1, hLAT1 (Homo sapiens, UniProt Q01650).
T1 construct: host or cells: LLC-PK1 (tetracycline-inducible, Invitrogen Gateway pT-REx System)
The data set can be described thus: Substrate transport inhibition, [3H]-gabapentin uptake in LLC-PK1 cells expressing hLAT1. The format is cell-based. Here is the method: Substrate transport inhibition studies were conducted with LLC-PK1 cells inducibly expressing either hLAT1 or hLAT2. Cells were plated in growth media with 1 μg/mL doxycycline at 30,000 cells/well in 96-well plates. Sixteen hours after plating, cells were treated with butyrate at a final concentration of 5 mM. The following day, cells were washed with PBS and incubated in the presence or absence of various concentrations of QBS10072S with 30,000 cpm/well of either [3H]-gabapentin (LAT1) or [3H]-leucine (LAT2) in PBS for 15 minutes at room temperature. The non-specific cell-bound activity was determined by the addition of 5 mM unlabeled gabapentin (LAT1) or leucine (LAT2). Unincorporated radioactivity was removed, and cells were washed three times with ice-cold PBS. Cells were lysed by adding scintillation fluid to each well, and cell-associated radioactivity was determined via scintillation counting using a multichannel 96-well plate reader (MicroBeta Trilux, Perkin Elmer, Waltham, MA). Data were expressed as the percent of specific radioactivity uptake in wells with no compound added. LC50s were determined by non-linear curve-fitting using GraphPad Prism (San Diego, CA).

For data set [2], the system named is LLC-PK1 inducible LAT1-expressing cell line. The data set can be described thus: Modified clonogenic cell viability assay (CellTiter-Glo), LLC-PK1 inducible LAT1-expressing cells. It counts as cell-based. The note with it: for EC50: Sus scrofa, read-out: EC50, suppression of viability. Here is the method: (§1) In vitro activity of QBS10072S was assessed using a modified clonogenic cell viability assay in 96-well clear-bottom plates. For the LLC-PK1 inducible LAT1-expressing cell line, 1000 cells/well were plated and cells were treated with either butyrate alone (non-induced) or with both butyrate and doxycycline (induced) as described above. For GBM cell lines, 2000 cells/well were plated. On day 2 (GBM) or day 3 (LLC-PK1) after original plating, cells were washed twice with PBS and incubated with 50 μL of various concentrations of QBS10072S in PBS in at least quadruplicate. After 30 minutes at 37°C, 200 μL of growth medium was added to each well. Clonal populations were allowed to grow until the control wells (mock treatment) were near confluence (7 to 10 days). At this point, 170 μL media were removed and 60 μL CellTiter-Glo® (Promega, Madison, WI) were added to each well. Plates were placed on an orbital shaker for three minutes to lyse the cells and then incubated for an additional 10 minutes at RT to stabilize the luminescent signal. Luminescence was recorded using an EnSpire® Multimode Plate Reader (Perkin Elmer). Background (luminescence from wells incubated with 100 μM melphalan or lomustine) was subtracted and data were normalized to the control. EC50s were determined by non-linear regression using GraphPad Prism.
(In ATP-based viability assays light output follows the ATP content of the culture.)

The test system of data set [3] is LN229 cells. The data set can be described thus: Cell viability assay (CellTiter-Glo), LN229. It counts as cell-based. The note with it: Homo sapiens, LN-229; Cell Line: LN229; read-out: LC50 (μM ± SD). How it is done:
as §1

Data set [4] relates to 42MGBA cells. The data set can be described thus: Cell viability assay (CellTiter-Glo), 42MGBA. The format is cell-based. Conditions: Homo sapiens; Cell Line: 42M6BA; read-out: LC50 (μM ± SD). Here is the method: as §1
In data set [5] the test system is AM38 cells. The data set can be described thus: Cell viability assay (CellTiter-Glo), AM38. It counts as cell-based. Conditions: Homo sapiens, AM-38; Cell Line: AM38; read-out: LC50 (μM ± SD). How it is done: as §1
Data set [6] concerns U87 cells. The data set can be described thus: WST1 cell viability assay, U87. It counts as cell-based. The note with it: Homo sapiens, U-87 MG, read-out: LC50 (μM ± SD). How it is done: (§2) In vitro activities of QBS10072S and temozolomide (TMZ) in U87 and U87-MGMT cells were assessed using the WST1 cell viability assay in 96-well plates in which 500/well of cells were plated in sextuplets for each condition. To avoid cell loss, the following washing and medium removing procedures were all done using a P200 pipet without vacuum aspiration. For QBS10072S treatment, cells were washed with PBS the next day and incubated with 50 μL of various concentrations of QBS10072S in PBS for 1 hour at 37°C. After incubation, 150 μL of growth medium was added to each well. The medium was subsequently changed every two days until day 7. For TMZ treatment, cells were treated with 100 μL of various concentrations of TMZ in a growth medium for 2 days. After incubation, cells were put back in a normal growth medium and continued culturing for five days. In the end, 10 μL of WST1 reagent was added to each well and incubated at 37°C for 4h before subjecting to plate reading at 450 nm and 690nm using an EnSpire multimode plate reader (PerkinElmer). Background (OD690nm) was subtracted and data were normalized to the control. LC50s were determined by non-linear regression using GraphPad Prism (GraphPad Software Inc., San Diego, California)
On the technique in general: Formazan colour is commonly taken as a measure of viable cells.

Data set [7] deals with U87-MGMT cells. The data set can be described thus: WST1 cell viability assay, U87-MGMT. The format is cell-based. Conditions: Homo sapiens, read-out: LC50 (μM ± SD). How it is done: as §2
The test system of data set [8] is phosphorylation of H2AX in normal human astrocytes. The data set can be described thus: Phosphorylation of γ-H2AX assay (immunoblot), normal human astrocytes. Conditions: NHAs, basal LAT1 undetectable, 16 hours. It counts as cell-based. How it is done:
U251 or normal human astrocyte cells were plated in six-well plates and incubated with various concentrations of QBS10072S for 16 hours. Proteins were extracted from cells using cell lysis buffer (Cell Signaling Technologies, Danvers, MA) supplemented with proteinase and a phosSTOP phosphatase inhibitor cocktail (Sigma-Aldrich, St. Louis, MO). Proteins were separated by SDS-PAGE and transferred onto polyvinylidene difluoride membranes, which were then probed with primary antibodies followed by horseradish peroxidase-conjugated secondary antibody, and visualized by ECL (Thermo-Fischer, S. San Francisco, CA). Antibodies specific for γH2AX (#2577), LAT1 (#5347), and beta-actin (#4970) were obtained from Cell Signaling Technologies.
For orientation: A western blot detects proteins with antibodies after separation by electrophoresis.

The nature of data set [9]: Maximum tolerated dose in Sprague-Dawley rats. It counts as in vivo, rat. The note with it: highest dose 10 mg/kg IV on day zero. How it is done:
Figure 7 Maximum tolerated dose in rats Sprague-Dawley rats (4 per arm) were dosed IV on day zero with vehicle or 2.5, 5, or 10 mg/kg of QBS10072S. Animals were monitored for two weeks for body weight changes (A), survival (B), and complete blood counts, including white blood cells (C), neutrophils (D), lymphocytes (E), red blood cells (F), platelets (G), and reticulocytes (H). Cell count results are expressed as cell count per μl. The normal cell count range for each type of cell is between the “max” and “min” lines, and the average value is indicated with a dotted line. Based on allometric scaling, 2.5, 5, and 10 mg/kg in rats is equivalent to 5, 10, and 20 mg/kg.

The nature of data set [10]: Microscopic evaluation of brain tissue after dosing rodents. It counts as in vivo. The note with it: rodents dosed with high levels.
Data set [11] relates to breast cancer metastatic tumors. Details: method as in PMID 34635566. The note with it: leptomeningeal metastatic disease model, BBB never disrupted; cited from earlier work.

Like-named read-outs stand apart in the source and are kept apart here.

T1 sequence (Q01650 whole entry): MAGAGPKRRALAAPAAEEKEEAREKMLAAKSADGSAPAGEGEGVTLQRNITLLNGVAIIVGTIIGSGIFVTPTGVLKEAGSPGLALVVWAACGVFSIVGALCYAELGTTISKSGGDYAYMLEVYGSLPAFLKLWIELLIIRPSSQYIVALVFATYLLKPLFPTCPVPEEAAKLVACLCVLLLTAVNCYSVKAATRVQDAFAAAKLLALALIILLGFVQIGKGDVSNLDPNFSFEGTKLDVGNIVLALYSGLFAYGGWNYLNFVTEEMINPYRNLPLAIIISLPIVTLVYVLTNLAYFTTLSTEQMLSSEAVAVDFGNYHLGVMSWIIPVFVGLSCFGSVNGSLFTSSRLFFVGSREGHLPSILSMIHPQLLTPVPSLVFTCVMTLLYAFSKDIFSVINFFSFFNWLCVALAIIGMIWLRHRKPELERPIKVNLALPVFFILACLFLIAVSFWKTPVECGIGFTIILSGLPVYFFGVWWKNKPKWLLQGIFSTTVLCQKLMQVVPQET
T1 sequence (P08195 102-630 partner): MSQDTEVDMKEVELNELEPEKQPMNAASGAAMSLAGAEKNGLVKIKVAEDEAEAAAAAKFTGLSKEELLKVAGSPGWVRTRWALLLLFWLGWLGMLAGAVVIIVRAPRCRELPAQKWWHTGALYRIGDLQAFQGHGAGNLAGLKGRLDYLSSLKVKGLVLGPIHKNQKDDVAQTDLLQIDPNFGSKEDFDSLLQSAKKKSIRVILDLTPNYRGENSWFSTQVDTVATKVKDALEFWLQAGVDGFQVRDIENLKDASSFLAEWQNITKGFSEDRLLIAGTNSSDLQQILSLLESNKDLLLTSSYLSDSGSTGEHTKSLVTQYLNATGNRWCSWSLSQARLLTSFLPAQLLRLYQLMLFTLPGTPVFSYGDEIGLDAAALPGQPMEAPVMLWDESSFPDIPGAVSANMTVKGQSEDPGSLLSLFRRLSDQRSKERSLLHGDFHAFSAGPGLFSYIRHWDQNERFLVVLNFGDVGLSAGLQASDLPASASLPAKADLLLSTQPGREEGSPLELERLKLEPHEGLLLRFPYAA

For orientation: IC50 means the concentration that gives 50% inhibition. As a reminder, the EC50 is the concentration that produces a half-maximal response. For the compound `Cc1ccc(N(CCCl)CCCl)cc1C[C@H](N)CC(=O)O` [QBS10072S, (+)-(3S)-amino-4-[5-[bis(2-chloroethyl)amino]-2-methyl-phenyl]butanoic acid], the half-inhibitory concentration (IC50) in data set [1] ([3H]-gabapentin, LLC-PK1 LAT1-expressing cells, 15 minutes at room temperature, read-out: IC50, inhibition of substrate transport (LAT1)) came out at 21 µM. For the same compound, in data set [1] (ratio of IC50s LAT2/LAT1), the “selectivity LAT1 vs. LAT2 in transport assays” value is 50 fold. Besides, the EC50 was 1 µM in [2] (LLC-PK1, induced, high LAT1 expressing cells) and 5.5 µM in data set [2] (LLC-PK1, non-induced cells, low endogenous LAT1). Further, the “potency induced vs. non-induced cells” value in data set [2] (high LAT1 vs. non-induced) was determined as 5.5 times. For the same compound, the CC50 in data set [3] turned out to be 16 ± 2 µM; in data set [4], 40 ± 10 µM; in data set [5] it was 14 ± 4 µM; in data set [6], 14.7 ± 5.3 µM; in data set [7] it was 12.8 ± 4.1 µM. For the same compound, in data set [8], the “DDR pathway activation (phospho-H2AX)” value was “significantly lower DDR pathway activation”. In addition, the maximum tolerated dose entry in [9] is recorded as “the highest dose was greater than the maximum tolerated dose”. For the same compound, the “alterations of the BBB, microscopic evaluation of brain tissue” value in [10] is listed as “no alterations of the BBB”. Further, in [11], the “inhibition of tumor growth with intact BBB” value is “still effective for inhibiting tumor growth”.

These data come from publication PMC8482806, “A Novel Blood-Brain Barrier-Permeable Chemotherapeutic Agent for the Treatment of Glioblastoma” (Cureus, 2021).
